The target in assay [1] is CBP (Homo sapiens (Human), UniProt Q92793). Put plainly: CBP TR-FRET binding assay.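 Note: displacement of a biotinylated small-molecule ligand from purified recombinant CBP read by TR-FRET, DMSO-only wells as control, IC50 from nonlinear curve fit.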 The note with it: His/Flag tagged CBP 4 nM, biotin-ligand 60 nM; read-out: CBP HTRF IC50.
The test system of assay [2] is MYC. Put plainly: MYC RPL19 QuantiGene assay in MV-4-11 cells. It is filed as cell-based. The note with it: Homo sapiens, MV4-11, compound 4 hours. The source says:
MYC RPL19 QuantiGene assay in MV-4-11 Cells

CBP, sequence (Q92793 whole entry): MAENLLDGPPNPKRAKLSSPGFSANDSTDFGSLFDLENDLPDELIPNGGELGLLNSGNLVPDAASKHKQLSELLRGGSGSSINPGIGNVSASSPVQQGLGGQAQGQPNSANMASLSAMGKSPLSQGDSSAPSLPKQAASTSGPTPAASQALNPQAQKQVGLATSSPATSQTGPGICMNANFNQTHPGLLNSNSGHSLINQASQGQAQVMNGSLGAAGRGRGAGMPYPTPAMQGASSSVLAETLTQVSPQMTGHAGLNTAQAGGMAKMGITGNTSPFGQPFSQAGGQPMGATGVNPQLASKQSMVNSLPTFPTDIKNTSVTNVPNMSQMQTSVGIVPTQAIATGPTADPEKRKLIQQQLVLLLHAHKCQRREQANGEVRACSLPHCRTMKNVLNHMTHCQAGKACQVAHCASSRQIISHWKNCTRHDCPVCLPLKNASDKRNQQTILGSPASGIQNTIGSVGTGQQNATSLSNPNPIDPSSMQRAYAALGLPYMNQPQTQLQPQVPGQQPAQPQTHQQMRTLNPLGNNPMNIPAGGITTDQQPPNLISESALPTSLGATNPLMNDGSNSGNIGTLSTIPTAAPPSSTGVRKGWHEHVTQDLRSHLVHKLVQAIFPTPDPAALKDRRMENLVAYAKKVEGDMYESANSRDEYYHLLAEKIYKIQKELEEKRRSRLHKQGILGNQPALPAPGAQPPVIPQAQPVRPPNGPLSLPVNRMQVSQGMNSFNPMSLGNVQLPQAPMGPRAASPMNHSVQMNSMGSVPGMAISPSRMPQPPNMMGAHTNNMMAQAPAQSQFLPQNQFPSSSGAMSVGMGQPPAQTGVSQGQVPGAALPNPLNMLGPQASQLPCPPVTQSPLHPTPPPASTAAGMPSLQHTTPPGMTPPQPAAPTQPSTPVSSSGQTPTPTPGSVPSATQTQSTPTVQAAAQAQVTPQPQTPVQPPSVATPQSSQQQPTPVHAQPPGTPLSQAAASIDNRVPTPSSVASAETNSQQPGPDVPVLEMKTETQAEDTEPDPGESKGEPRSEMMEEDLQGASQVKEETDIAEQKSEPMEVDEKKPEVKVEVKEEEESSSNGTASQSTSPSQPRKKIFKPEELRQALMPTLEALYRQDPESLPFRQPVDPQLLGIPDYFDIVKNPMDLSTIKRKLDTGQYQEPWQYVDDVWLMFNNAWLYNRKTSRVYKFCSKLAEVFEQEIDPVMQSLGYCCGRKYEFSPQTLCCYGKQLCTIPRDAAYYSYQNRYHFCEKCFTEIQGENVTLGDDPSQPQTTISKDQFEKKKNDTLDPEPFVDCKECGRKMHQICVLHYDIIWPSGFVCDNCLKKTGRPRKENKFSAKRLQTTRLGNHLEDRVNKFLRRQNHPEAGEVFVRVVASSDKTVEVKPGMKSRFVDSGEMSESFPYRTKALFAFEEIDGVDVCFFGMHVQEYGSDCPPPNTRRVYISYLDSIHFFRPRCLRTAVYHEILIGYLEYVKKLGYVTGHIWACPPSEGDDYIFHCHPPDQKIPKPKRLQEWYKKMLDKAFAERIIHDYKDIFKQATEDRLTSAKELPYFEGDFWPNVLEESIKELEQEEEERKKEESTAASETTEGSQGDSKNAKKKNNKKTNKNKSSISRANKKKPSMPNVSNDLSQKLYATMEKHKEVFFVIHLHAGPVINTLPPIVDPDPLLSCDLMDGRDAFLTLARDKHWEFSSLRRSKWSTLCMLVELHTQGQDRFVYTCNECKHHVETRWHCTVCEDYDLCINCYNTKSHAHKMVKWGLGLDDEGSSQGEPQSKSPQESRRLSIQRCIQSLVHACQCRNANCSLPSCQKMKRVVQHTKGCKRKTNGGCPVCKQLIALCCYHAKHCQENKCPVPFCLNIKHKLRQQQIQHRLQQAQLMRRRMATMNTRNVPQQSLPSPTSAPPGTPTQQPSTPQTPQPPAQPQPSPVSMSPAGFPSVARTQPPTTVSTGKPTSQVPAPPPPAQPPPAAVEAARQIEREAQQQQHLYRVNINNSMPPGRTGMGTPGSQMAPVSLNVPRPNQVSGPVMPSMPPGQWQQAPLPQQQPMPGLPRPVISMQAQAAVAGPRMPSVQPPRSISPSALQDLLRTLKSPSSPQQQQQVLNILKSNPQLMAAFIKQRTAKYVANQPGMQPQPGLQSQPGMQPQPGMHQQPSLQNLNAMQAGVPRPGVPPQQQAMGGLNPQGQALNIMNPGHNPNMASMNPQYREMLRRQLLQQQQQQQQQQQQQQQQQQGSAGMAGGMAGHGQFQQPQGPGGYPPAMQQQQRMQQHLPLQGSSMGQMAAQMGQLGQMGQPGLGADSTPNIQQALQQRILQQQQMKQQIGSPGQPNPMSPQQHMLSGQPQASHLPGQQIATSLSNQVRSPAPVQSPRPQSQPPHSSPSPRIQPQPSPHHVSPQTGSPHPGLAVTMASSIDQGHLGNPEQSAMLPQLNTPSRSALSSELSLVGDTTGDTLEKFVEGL

`CNC(=O)N1CCNc2ccc(N3CCCc4cc(-c5cnn(C)c5)c(C(F)F)cc43)cc2C1` [Example 16, 7-[7-(difluoromethyl)-6-(1-methylpyrazol-4-yl)-3,4-dihydro-2H-quinolin-1-yl]-N-methyl-1,2,3,5-tetrahydro-1,4-benzodiazepine-4-carboxamide]: the IC50 in assay [1] is 8 nM; in assay [2], 173 nM.
The corresponding values for `Cn1cc(-c2cc3c(cc2C(F)F)N(c2cc(C4CCOCC4)c4c(c2)n(C)c(=O)n4C)CCC3)cn1` [Example 97, 6-(7-(difluoromethyl)-6-(1-methyl-1H-pyrazol-4-yl)-3,4-dihydroquinolin-1(2H)-yl)-1,3-dimethyl-4-(tetrahydro-2H-pyran-4-yl)-1H-benzo[d]imidazol-2(3H)-one] are 4 nM and 58 nM.
As for `CNC(=O)c1cn(C)c2c(C3CCOCC3)cc(N3CCCc4cc(-c5cnn(C)c5)c(C(F)F)cc43)cc12` [Example 105, 5-(7-(difluoromethyl)-6-(1-methyl-1H-pyrazol-4-yl)-3,4-dihydroquinolin-1(2H)-yl)-N,1-dimethyl-7-(tetrahydro-2H-pyran-4-yl)-1H-indole-3-carboxamide], the figures for the IC50 in assay [1] and in assay [2] were 11 nM and 86 nM, respectively.
As for `CC(=O)N1CCc2c(cc(N3CCCc4cc(-c5cnn(C)c5)c(C(F)F)cc43)c(=O)n2C)C1` [Example 17], the IC50 in assay [1] stood at 47 nM; in assay [2], 2660 nM.

These data come from US10696655B2, “Therapeutic compounds and uses thereof” (GENENTECH, INC., priority 2017, dated 2020).
